Source: PubChem BioAssay (NCI)
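The compound was tested at five concentrations on cells cultured in 96-well plates, with a 48-hour exposure period. TGI: total growth inhibition.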

How the values were obtained:
Assay in all cases: DTP human tumour cell line panel, 48 h
[1] = tested on: UO-31 renal
[2] = tested on: ACHN renal
[3] = tested on: HCC-2998 colon
[4] = tested on: K-562 leukemia
[5] = tested on: HL-60(TB) leukemia
[6] = tested on: U251 CNS
[7] = tested on: OVCAR-3 ovarian
[8] = tested on: EKVX NSCLC
[9] = tested on: SNB-19 CNS
[10] = tested on: OVCAR-4 ovarian
[11] = tested on: SW-620 colon
[12] = tested on: MDA-MB-435
[13] = tested on: MCF7 breast
[14] = tested on: OVCAR-5 ovarian
[15] = tested on: T-47D breast
[16] = tested on: HCT-15 colon
[17] = tested on: SK-MEL-5 melanoma
[18] = tested on: SN12C renal
[19] = tested on: NCI/ADR-RES ovarian
[20] = tested on: SF-295 CNS
[21] = tested on: COLO 205 colon
[22] = tested on: 786-0 renal
[23] = tested on: OVCAR-8 ovarian
[24] = tested on: KM12 colon
[25] = tested on: SK-MEL-2 melanoma
[26] = tested on: SF-268 CNS
[27] = tested on: MDA-N
[28] = tested on: MDA-MB-231 breast
[29] = tested on: CCRF-CEM leukemia
[30] = tested on: NCI-H23 lung
[31] = tested on: HT29 colon
[32] = tested on: NCI-H460 lung
[33] = tested on: A549 NSCLC
[34] = tested on: SK-OV-3 ovarian
[35] = tested on: HCT-116 colon
[36] = tested on: HS 578T breast
[37] = tested on: SF-539 CNS
[38] = tested on: UACC-62 melanoma
[39] = tested on: NCI-H522 lung
[40] = tested on: HOP-92 NSCLC
[41] = tested on: MALME-3M melanoma
[42] = tested on: SR leukemia
[43] = tested on: SK-MEL-28 melanoma
[44] = tested on: CAKI-1 renal
[45] = tested on: TK-10 renal
[46] = tested on: UACC-257 melanoma
[47] = tested on: IGROV1 ovarian
[48] = tested on: A498 renal
[49] = tested on: LOX IMVI melanoma
[50] = tested on: NCI-H226 lung
[51] = tested on: DU-145 prostate
[52] = tested on: HOP-62 NSCLC
[53] = tested on: MOLT-4 leukemia
[54] = tested on: RPMI-8226 leukemia
[55] = tested on: BT-549 breast
[56] = tested on: PC-3 prostate
[57] = tested on: M14 melanoma
[58] = tested on: RXF 393 renal
[59] = tested on: SNB-75 CNS

Measured: TGI

Cc1ccc(Cc2n[nH]c(=O)n2Nc2ccccc2)cc1
> 100 µM: [1] | [2] | [3] | [4] | [5] | [6] | [7] | [8] | [9] | [10] | [11] | [12] | [13] | [14] | [15] | [16] | [17] | [18] | [19] | [20] | [21] | [22] | [23] | [24] | [25] | [26] | [27] | [28] | [29] | [30] | [31] | [32] | [33] | [34] | [35] | [36] | [37] | [38] | [39] | [40] | [41] | [42] | [43] | [44] | [45] | [46] | [47] | [48] | [49] | [50] | [51] | [52] | [53] | [54] | [55]

CC(C)(C)[Si](C)(C)OCC1OC(n2cnc3c(N)ncnc32)CC1O (stereo not given)
> 100 µM: [1] | [4] | [5] | [6] | [7] | [56] | [9] | [10] | [11] | [12] | [57] | [13] | [14] | [15] | [16] | [17] | [18] | [19] | [20] | [21] | [23] | [24] | [25] | [27] | [28] | [29] | [30] | [31] | [32] | [34] | [35] | [36] | [38] | [41] | [42] | [43] | [44] | [45] | [46] | [47] | [48] | [49] | [58] | [50] | [51] | [52] | [53] | [54] | [59] | [55]
